From patent US11208412B2 (DAEGU-GYEONGBUK MEDICAL INNOVATION FOUNDATION, priority 2017, dated 2021)

Key:
Experiment in all cases: Kinase selectivity, DiscoverX scanMAX Kinase assay panel (% control)
Format in all cases: binding
[1] = molecular target: T1, kinases of the scanMAX Kinase assay panel (Homo sapiens, UniProt O15146); conditions: MUSK; 1 uM
T1 construct: purchased DiscoverX Co. (contract measurement) scanMAX Kinase assay panel
T1 sequence (O15146 24-869): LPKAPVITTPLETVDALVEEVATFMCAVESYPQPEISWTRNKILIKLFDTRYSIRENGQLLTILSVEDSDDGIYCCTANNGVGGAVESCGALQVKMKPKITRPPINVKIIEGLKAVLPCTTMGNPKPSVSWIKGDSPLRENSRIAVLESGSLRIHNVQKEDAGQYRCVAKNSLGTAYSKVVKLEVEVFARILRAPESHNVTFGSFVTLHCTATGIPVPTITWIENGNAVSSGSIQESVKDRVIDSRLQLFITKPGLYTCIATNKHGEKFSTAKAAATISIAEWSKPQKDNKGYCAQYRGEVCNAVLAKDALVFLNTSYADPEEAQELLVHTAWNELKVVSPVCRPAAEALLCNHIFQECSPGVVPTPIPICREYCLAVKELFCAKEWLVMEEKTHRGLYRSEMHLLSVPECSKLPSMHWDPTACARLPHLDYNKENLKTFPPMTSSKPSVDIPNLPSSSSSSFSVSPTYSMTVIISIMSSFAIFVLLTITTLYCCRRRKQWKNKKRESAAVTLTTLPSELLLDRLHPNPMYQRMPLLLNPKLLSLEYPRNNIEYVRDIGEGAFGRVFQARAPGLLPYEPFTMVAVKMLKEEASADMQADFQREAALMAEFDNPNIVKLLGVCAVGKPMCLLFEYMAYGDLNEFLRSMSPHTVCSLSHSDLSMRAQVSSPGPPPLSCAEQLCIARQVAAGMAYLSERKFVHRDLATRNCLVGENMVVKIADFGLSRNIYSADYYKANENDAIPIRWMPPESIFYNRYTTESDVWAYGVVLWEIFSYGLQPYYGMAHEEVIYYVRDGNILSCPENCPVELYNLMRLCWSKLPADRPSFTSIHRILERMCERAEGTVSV
Summary of the method: (§1)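 Percent of control computed as (compound − positive control)/(negative control − positive control) × 100, DMSO defining 100% and positive control 0%. Each panel kinase exposed to 1 uM compound; values under 35% taken to mean the compound acts on that kinase.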

[2] = molecular target: T2, kinases of the scanMAX Kinase assay panel (Homo sapiens, UniProt O43318); conditions: kinase TAK1; 1 uM in DMSO
T2 construct: purchased DiscoverX Co. (contract measurement) scanMAX Kinase assay panel
T2 sequence (O43318 1-606): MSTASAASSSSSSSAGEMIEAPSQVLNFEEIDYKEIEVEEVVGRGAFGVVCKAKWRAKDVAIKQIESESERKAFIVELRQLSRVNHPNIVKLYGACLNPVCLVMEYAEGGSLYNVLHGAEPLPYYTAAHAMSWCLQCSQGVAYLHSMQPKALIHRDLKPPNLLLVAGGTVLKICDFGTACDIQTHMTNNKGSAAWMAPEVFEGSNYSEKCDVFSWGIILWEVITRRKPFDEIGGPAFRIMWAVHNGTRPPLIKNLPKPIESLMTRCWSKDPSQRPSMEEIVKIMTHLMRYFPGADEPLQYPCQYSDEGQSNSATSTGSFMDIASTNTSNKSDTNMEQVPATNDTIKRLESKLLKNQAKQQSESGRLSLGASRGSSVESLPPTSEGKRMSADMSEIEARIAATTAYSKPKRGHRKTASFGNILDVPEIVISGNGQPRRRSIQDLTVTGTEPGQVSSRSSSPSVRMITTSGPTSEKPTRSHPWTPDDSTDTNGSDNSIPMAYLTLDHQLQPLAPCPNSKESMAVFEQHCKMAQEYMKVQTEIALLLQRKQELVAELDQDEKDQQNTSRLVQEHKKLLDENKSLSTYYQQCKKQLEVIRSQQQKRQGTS
Summary of the method: as §1

[3] = molecular target: T3, kinases of the scanMAX Kinase assay panel (Homo sapiens, UniProt O75914); conditions: PAK3; 1 uM
T3 construct: purchased DiscoverX Co. (contract measurement) scanMAX Kinase assay panel
T3 sequence (O75914 whole entry): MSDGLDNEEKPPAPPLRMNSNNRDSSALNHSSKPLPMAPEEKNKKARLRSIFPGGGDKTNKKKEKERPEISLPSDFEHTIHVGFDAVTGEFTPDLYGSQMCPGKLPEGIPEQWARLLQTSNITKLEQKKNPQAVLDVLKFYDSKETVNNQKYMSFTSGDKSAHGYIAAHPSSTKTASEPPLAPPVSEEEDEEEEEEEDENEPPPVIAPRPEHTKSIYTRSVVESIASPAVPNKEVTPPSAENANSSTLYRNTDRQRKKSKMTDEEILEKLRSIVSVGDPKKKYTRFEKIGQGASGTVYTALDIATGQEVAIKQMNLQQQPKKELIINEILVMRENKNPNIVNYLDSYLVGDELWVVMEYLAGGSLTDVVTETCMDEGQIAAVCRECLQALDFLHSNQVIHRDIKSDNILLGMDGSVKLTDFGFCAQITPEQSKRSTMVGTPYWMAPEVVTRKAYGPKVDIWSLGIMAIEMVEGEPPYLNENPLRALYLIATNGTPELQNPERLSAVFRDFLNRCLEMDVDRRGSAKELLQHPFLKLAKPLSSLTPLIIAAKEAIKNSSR
Summary of the method: as §1

[4] = molecular target: T4, kinases of the scanMAX Kinase assay panel (Homo sapiens, UniProt O95747); conditions: OSR1; 1 uM
T4 construct: purchased DiscoverX Co. (contract measurement) scanMAX Kinase assay panel
T4 sequence (O95747 whole entry): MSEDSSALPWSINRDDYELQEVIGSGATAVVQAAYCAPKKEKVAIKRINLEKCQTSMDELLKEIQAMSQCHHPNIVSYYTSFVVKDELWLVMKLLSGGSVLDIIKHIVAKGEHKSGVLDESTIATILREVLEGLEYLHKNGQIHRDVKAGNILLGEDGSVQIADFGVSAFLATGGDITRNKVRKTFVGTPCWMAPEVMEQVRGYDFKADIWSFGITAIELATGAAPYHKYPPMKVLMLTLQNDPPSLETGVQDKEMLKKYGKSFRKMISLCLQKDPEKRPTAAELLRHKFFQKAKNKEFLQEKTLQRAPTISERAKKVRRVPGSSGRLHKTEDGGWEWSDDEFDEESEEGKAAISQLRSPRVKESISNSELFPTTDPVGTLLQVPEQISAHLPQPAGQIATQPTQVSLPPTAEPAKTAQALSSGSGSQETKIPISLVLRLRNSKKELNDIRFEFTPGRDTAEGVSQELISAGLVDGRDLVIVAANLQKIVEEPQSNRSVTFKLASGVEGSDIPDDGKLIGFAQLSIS
Summary of the method: as §1

[5] = molecular target: T5, kinases of the scanMAX Kinase assay panel (Homo sapiens, UniProt P00519, F317I); conditions: 1 uM
T5 construct: purchased DiscoverX Co. (contract measurement) scanMAX Kinase assay panel
T5 sequence (P00519 whole entry F317I): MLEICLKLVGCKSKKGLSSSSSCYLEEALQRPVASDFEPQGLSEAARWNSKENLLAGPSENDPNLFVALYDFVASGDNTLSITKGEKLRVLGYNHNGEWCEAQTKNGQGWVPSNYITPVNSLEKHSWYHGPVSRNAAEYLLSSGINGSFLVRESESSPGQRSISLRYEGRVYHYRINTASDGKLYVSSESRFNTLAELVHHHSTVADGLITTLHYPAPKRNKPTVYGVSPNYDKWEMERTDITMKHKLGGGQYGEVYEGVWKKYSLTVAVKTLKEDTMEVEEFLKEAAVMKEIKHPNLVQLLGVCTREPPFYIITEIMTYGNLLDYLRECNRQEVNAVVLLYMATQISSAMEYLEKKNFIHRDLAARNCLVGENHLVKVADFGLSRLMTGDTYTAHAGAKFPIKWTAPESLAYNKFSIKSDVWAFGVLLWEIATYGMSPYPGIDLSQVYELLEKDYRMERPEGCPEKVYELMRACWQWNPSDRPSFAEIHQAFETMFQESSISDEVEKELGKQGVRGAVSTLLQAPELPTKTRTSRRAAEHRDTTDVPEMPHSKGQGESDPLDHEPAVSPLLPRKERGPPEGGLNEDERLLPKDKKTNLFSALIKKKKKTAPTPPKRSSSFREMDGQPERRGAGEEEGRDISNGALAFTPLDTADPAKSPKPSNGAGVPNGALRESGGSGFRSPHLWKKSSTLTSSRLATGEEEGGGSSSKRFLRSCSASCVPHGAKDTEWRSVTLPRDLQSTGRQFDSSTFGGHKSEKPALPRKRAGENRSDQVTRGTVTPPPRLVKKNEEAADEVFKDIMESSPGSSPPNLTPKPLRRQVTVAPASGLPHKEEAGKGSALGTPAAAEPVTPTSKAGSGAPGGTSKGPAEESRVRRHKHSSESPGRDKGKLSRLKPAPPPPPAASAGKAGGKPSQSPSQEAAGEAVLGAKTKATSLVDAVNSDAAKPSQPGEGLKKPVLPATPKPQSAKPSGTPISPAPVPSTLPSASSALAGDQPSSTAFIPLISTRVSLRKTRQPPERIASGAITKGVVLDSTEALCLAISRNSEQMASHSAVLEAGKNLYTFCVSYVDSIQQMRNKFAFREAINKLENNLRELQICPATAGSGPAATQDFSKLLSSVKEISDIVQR
Summary of the method: as §1

[6] = molecular target: T6, kinases of the scanMAX Kinase assay panel (Homo sapiens, UniProt P10721, A829P); conditions: KIT(A829P); 1 uM
T6 construct: purchased DiscoverX Co. (contract measurement) scanMAX Kinase assay panel
T6 sequence (P10721 26-976 A829P): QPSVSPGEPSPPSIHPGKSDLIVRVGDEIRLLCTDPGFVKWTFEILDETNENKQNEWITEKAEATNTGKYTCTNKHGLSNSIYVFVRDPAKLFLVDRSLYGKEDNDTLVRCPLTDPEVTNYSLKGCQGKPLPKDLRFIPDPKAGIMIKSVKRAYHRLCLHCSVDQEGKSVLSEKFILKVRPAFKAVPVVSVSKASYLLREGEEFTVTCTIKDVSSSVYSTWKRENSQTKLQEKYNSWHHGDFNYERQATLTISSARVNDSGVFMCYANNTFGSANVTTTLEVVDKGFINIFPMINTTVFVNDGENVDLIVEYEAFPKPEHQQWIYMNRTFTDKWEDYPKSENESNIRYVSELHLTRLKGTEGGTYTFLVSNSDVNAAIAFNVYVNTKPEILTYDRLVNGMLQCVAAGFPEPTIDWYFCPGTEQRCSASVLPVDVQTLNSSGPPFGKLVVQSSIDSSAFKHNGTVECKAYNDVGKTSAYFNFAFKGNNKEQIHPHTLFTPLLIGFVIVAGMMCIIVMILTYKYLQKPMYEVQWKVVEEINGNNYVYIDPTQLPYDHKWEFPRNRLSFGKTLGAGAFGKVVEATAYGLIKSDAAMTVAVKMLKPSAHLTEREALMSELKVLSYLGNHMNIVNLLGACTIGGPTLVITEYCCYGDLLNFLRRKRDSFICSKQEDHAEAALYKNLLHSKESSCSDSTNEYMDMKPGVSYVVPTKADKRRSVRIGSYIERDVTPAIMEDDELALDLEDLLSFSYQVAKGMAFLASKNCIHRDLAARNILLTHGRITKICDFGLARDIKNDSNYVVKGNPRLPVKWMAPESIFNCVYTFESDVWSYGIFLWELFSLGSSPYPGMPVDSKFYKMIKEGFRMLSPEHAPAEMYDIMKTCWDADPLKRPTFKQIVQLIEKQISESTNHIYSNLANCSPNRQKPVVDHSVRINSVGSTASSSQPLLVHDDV
Summary of the method: as §1

[7] = molecular target: T7, kinases of the scanMAX Kinase assay panel (Homo sapiens, UniProt P10721, D816H); conditions: KIT(D816H); 1 uM
T7 construct: purchased DiscoverX Co. (contract measurement) scanMAX Kinase assay panel
T7 sequence (P10721 26-976 D816H): as the sequence (P10721 26-976 A829P) above, with D791H, P804A counted along it
Summary of the method: as §1

[8] = molecular target: T8, kinases of the scanMAX Kinase assay panel (Homo sapiens, UniProt Q96SB4); conditions: kinase SRPK1; 1 uM in DMSO
T8 construct: purchased DiscoverX Co. (contract measurement) scanMAX Kinase assay panel
T8 sequence (Q96SB4 whole entry): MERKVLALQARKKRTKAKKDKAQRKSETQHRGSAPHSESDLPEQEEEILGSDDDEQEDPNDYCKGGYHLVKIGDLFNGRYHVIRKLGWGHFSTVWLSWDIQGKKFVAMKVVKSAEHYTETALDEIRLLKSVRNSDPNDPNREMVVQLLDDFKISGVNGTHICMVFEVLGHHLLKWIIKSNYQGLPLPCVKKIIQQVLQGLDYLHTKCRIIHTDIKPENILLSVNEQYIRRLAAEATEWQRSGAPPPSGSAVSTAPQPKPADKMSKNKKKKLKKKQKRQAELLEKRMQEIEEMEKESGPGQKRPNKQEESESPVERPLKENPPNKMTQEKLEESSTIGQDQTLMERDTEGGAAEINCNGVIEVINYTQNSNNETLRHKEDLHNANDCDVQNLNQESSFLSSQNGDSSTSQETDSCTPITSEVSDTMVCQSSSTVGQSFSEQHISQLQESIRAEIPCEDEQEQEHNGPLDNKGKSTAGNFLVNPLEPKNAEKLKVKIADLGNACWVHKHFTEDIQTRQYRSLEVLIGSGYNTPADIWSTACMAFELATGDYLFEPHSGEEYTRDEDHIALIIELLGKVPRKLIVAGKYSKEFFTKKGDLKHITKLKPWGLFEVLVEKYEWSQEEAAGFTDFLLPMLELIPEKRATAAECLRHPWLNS
Summary of the method: as §1

Row | Compound | remaining binding at 1 µM [1] [%] | remaining binding at 1 µM [2] [%] | remaining binding at 1 µM [3] [%] | remaining binding at 1 µM [4] [%] | remaining binding at 1 µM ([5]; ABL1(F317I)-nonphosphorylated) [%] | remaining binding at 1 µM ([5]; ABL1(F317I)-phosphorylated) [%] | remaining binding at 1 µM [6] [%] | remaining binding at 1 µM [7] [%] | remaining binding at 1 µM [8] [%]
1 | CNc1nc(Nc2ccc(C(=O)N3CCOCC3)cc2OC)nc2[nH]cc(C#N)c12 [Example 1, 2-((2-methoxy-4-(morpholine-4-carbonyl)phenyl)amino)-4-(methylamino)-7H-pyrrolo[2,3-d]pyrimidine-5-carbonitrile] | 97 | 52 | 68 | 21 | 99 | 54 | 60 | 77 | 66
2 | CC1(Nc2nc(Nc3cnn([C@H]4CCN(C5COC5)C[C@@H]4F)c3Cl)nc3[nH]cc(C#N)c23)CC1 [Example 52, 2-((5-chloro-1-((3S,4S)-3-fluoro-1-(oxetane-3-yl)piperidine-4-yl)-1H-pyrazole-4-yl)amino)((1-methylcyclopropyl)amino)-7H-pyrrolo[2,3-d]pyrimidine-5-carbonitrile] | 100 | 0.05 | 17 | 0.45 | 25 | 7.6 | 11 | 8.1 | 0.05
3 | CCNc1nc(Nc2ccc(C(=O)N3CCC(N4CCOCC4)CC3)cc2OC)nc2[nH]cc(C(F)(F)F)c12 [Example 104, (4-((4-(ethylamino)-5-(trifluoromethyl)-7H-pyrrolo[2,3-d]pyrimidine-2-yl)amino)-3-methoxyphenyl)(4-morpholinopiperidine-1-yl)methanone] | 94 | 100 | 100 | 7.5 | 56 | 29 | 100 | 100 | 100
